Patent publication US20220235094A1, “CRYSTALLINE FORMS OF ANTIDEPRESSANT DRUG SAGE-217 AND PREPARATION METHOD THEREFOR” (priority 2019, published 2022)
“Also recorded” adds a separate entry of the source.

Assays:
[1] = DVS test (moisture adsorption isotherm, hygroscopicity); assay type: physicochemical
Procedure: The sample of crystalline form 04 prepared in Example 1 was placed on a microbalance plate in a sealed sample chamber, and then exposed to different relative humidity, the relative humidity ranged from […] to 90%, and changed in 10% increments. At each humidity level, the sample is balanced when dm/dt is less than 0.002% within 10 minutes. The mass of the dried sample and the equilibrium mass at each humidity level were recorded, and the weight change was plotted against relative humidity, which is the moisture adsorption isotherm of the sample.
Regarding the description of hygroscopicity characteristics and the definition of hygroscopic weight gain (Appendix XIX J of Chinese Pharmacopoeia 2010 Edition, Guidelines for Hygroscopicity, with experimental conditions: 25±1° C., 80% relative humidity):
Deliquescent: sufficient water is absorbed to form liquid
Extremely hygroscopic: the increase in mass is not less than 15%
Hygroscopic: the increase in mass is less than 15% but not less than 2%
Slightly hygroscopic: the increase in mass is less than 2% but not less than 0.2%
Practical nonhygroscopic: the increase in mass is less than 0.2%.

[2] = Crystalline form stability under different temperature and humidity conditions; assay type: physicochemical
Procedure: The samples of crystalline form 04 prepared in Example 1 were taken, and placed at 25° C./60% humidity and 40° C./75% humidity for 1 month; placed at 2-8° C. for 9 months: after the placement, the above-mentioned samples were taken out and tested for the crystalline form.

[3] = Thermodynamic solubility test in water; assay type: physicochemical; conditions: 25° C., 24 hours; for Area: HPLC
Procedure: Thermodynamic solubility test: the solid powder was added to water to a saturated solution, and then the suspension liquid was stirred under magnetic stirring at 25° C. for 24 hours. After completion, it was filtered with a 0.20 μm filter and analyzed by HPLC. Tests were carried out in parallel, and each group was tested twice to take the average.

[4] = Mechanical pressure stability, XRPD after 2 tons of pressure; assay type: physicochemical; conditions: 2 tons of mechanical pressure; for XRPD change after mechanical pressure: 100 mg sample
Procedure: To further evaluate the mechanical stability of the crystalline form 04 of the present application and the crystalline form K reported in WO 2018/039378 A1, a 100 mg sample was subjected to 2 tons of mechanical pressure, and the recovered tablets were gently ground and tested by XRPD.

[5] = Crystalline form stability as exposed powder and in sealed vial; conditions: for crystalline form stability in a sealed vial: 25° C./45% RH
[6] = Stability compared between crystalline forms

C[C@@]1(O)CC[C@H]2[C@H](CC[C@@H]3[C@@H]2CC[C@]2(C)[C@@H](C(=O)Cn4cc(C#N)cn4)CC[C@@H]32)C1 [crystalline form 04, 1-(2-((3R,5R,8R,9R,10S,13S,14S,17S)-3-hydroxy-3,13-dimethylhexadecahydro-1H-cyclopenta[a]phenanthren-17-yl)-2-oxoethyl)-1H-pyrazole-4-carbonitrile]
hygroscopicity ([1]; DVS curve): no or almost no hygroscopicity; also recorded: no hygroscopicity
water absorption ([1]; DVS, 25° C., relative humidity changed from 40%/0 to 90%): 0.06%
Crystalline form after storage ([2]; 0-8° C., 9 months): the crystalline form remains
Crystalline form after storage ([2]; 2-8° C., 9 months): form 04
Crystalline form after storage ([2]; 25° C., 60% relative humidity, 1 month): stored stably for one month without change; also recorded: form 04
Crystalline form after storage ([2]; 40° C., 75% relative humidity, 1 month): stored stably for one month without change; also recorded: form 04
Concentration (thermodynamic solubility) ([3]; Average): 0.4375 µg/mL
Concentration (thermodynamic solubility) ([3]; Group 1): 0.4506 µg/mL
Concentration (thermodynamic solubility) ([3]; Group 2): 0.4243 µg/mL
Area ([3]; Average): 12.2 mAu*s
Area ([3]; Group 1): 12.6 mAu*s
Area ([3]; Group 2): 11.8 mAu*s
XRPD change after mechanical pressure [4]: no obvious change
mechanical / physical stability compared with crystalline form K [4]: better than that of the crystalline form K; also recorded: better mechanical stress stability
time stable in the exposed powder state ([5]; time in words): one day
crystalline form stability in a sealed vial [5]: more than seven days

C[C@@]1(O)CC[C@H]2[C@H](CC[C@@H]3[C@@H]2CC[C@]2(C)[C@@H](C(=O)Cn4cc(C#N)cn4)CC[C@@H]32)C1 [crystalline form D-1, 1-(2-((3R,5R,8R,9R,10S,13S,14S,17S)-3-hydroxy-3,13-dimethylhexadecahydro-1H-cyclopenta[a]phenanthren-17-yl)-2-oxoethyl)-1H-pyrazole-4-carbonitrile]
Crystalline form after storage ([2]; 0-8° C., 9 months): the crystalline form remains
Crystalline form after storage ([2]; 2-8° C., 9 months): the crystalline form did not change
stability compared with other crystalline forms [6]: better stability than crystalline form D
time stable in the exposed powder state [5]: 18 h
crystalline form stability in a sealed vial [5]: more than seven days

C[C@@]1(O)CC[C@H]2[C@H](CC[C@@H]3[C@@H]2CC[C@]2(C)[C@@H](C(=O)Cn4cc(C#N)cn4)CC[C@@H]32)C1 [crystalline form 06, 1-(2-((3R,5R,8R,9R,10S,13S,14S,17S)-3-hydroxy-3,13-dimethylhexadecahydro-1H-cyclopenta[a]phenanthren-17-yl)-2-oxoethyl)-1H-pyrazole-4-carbonitrile]
time stable in the exposed powder state [5]: 16 h
crystalline form stability in a sealed vial [5]: more than seven days

C[C@@]1(O)CC[C@H]2[C@H](CC[C@@H]3[C@@H]2CC[C@]2(C)[C@@H](C(=O)Cn4cc(C#N)cn4)CC[C@@H]32)C1 [crystalline form 08, 1-(2-((3R,5R,8R,9R,10S,13S,14S,17S)-3-hydroxy-3,13-dimethylhexadecahydro-1H-cyclopenta[a]phenanthren-17-yl)-2-oxoethyl)-1H-pyrazole-4-carbonitrile]
stability compared with other crystalline forms [6]: relatively low stability

C[C@@]1(O)CC[C@H]2[C@H](CC[C@@H]3[C@@H]2CC[C@]2(C)[C@@H](C(=O)Cn4cc(C#N)cn4)CC[C@@H]32)C1 [crystalline form D-2, 1-(2-((3R,5R,8R,9R,10S,13S,14S,17S)-3-hydroxy-3,13-dimethylhexadecahydro-1H-cyclopenta[a]phenanthren-17-yl)-2-oxoethyl)-1H-pyrazole-4-carbonitrile]
stability compared with other crystalline forms [6]: better stability than crystalline form D
time stable in the exposed powder state [5]: 18 h
crystalline form stability in a sealed vial [5]: more than seven days

C[C@@]1(O)CC[C@H]2[C@H](CC[C@@H]3[C@@H]2CC[C@]2(C)[C@@H](C(=O)Cn4cc(C#N)cn4)CC[C@@H]32)C1 [crystalline form K, 1-(2-((3R,5R,8R,9R,10S,13S,14S,17S)-3-hydroxy-3,13-dimethylhexadecahydro-1H-cyclopenta[a]phenanthren-17-yl)-2-oxoethyl)-1H-pyrazole-4-carbonitrile, reference compound]
Concentration (thermodynamic solubility) ([3]; Average): 0.398 µg/mL
Concentration (thermodynamic solubility) ([3]; Group 1): 0.3927 µg/mL
Concentration (thermodynamic solubility) ([3]; Group 2): 0.4032 µg/mL
Area ([3]; Average): 11.1 mAu*s
Area ([3]; Group 1): 10.9 mAu*s
Area ([3]; Group 2): 11.2 mAu*s
XRPD change after mechanical pressure [4]: a slight decrease in its crystallinity
